Experimental data published in ChEMBL document CHEMBL4834443, “Identification of bioactive compounds from mulberry enhancing glucose-stimulated insulin secretion” (Bioorg Med Chem Lett, 2021).
The source made the active and inactive calls. The rule behind the calls is not given here.

What was measured:
INS1 [1] = assay: Cytotoxicity against rat INS1 cells assessed as cell viability at 1 to 10 uM measured after 24 hrs by MTT assay; assay type: cell-based; conditions: ins1, 24 h, dose 1-10 µM
INS1 [2] = assay: Induction of insulin secretion in rat INS1 cells assessed as increase in IRS-2 expression at 2.5 uM measured after 24 hrs by western blot assay; assay type: functional, cell-based
INS1 [3] = assay: Induction of insulin secretion in rat INS1 cells assessed as increase in phosphorylation of PI3K at 2.5 uM measured after 24 hrs by western blot assay; assay type: functional, cell-based
INS1 [4] = assay: Induction of insulin secretion in rat INS1 cells assessed as increase in PDX-1 expression at 2.5 uM measured after 24 hrs by western blot assay; assay type: functional, cell-based
INS1 [5] = assay: Stimulation of glucose stimulated insulin secretion in rat INS1 cells assessed as glucose stimulation index at 2.5 uM in presence of glucose measured after 1 hr; assay type: functional
INS1 [6] = assay: Stimulation of glucose stimulated insulin secretion in rat INS1 cells assessed as glucose stimulation index at 5 uM in presence of glucose measured after 1 hr; assay type: functional
INS1 [7] = assay: Induction of insulin secretion in rat INS1 cells assessed as increase in AKT expression at 2.5 uM measured after 24 hrs by western blot assay; assay type: functional, cell-based
INS1 [8] = assay: Induction of insulin secretion in rat INS1 cells assessed as increase in PI3K expression at 2.5 uM measured after 24 hrs by western blot assay; assay type: functional, cell-based
INS1 [9] = assay: Induction of insulin secretion in rat INS1 cells assessed as increase in phosphorylation of AKT at Ser 473 at 2.5 uM measured after 24 hrs by western blot assay; assay type: functional, cell-based
INS1 [10] = assay: Induction of insulin secretion in rat INS1 cells assessed as increase in phosphorylation of IRS 2 at Ser 731 at 2.5 uM measured after 24 hrs by western blot assay; assay type: functional, cell-based
INS1 [11] = assay: Induction of insulin secretion in rat INS1 cells assessed as increase in phosphorylation of IRS 2 at Ser 731 at 5 uM measured after 24 hrs by western blot assay; assay type: functional, cell-based
INS1 [12] = assay: Induction of insulin secretion in rat INS1 cells assessed as increase in phosphorylation of PI3K at 5 uM measured after 24 hrs by western blot assay; assay type: functional, cell-based
INS1 [13] = assay: Induction of insulin secretion in rat INS1 cells assessed as increase in phosphorylation of AKT at Ser 473 at 5 uM measured after 24 hrs by western blot assay; assay type: functional, cell-based
INS1 [14] = assay: Induction of insulin secretion in rat INS1 cells assessed as increase in PI3K expression at 5 uM measured after 24 hrs by western blot assay; assay type: functional, cell-based
INS1 [15] = assay: Induction of insulin secretion in rat INS1 cells assessed as increase in IRS-2 expression at 5 uM measured after 24 hrs by western blot assay; assay type: functional, cell-based
INS1 [16] = assay: Induction of insulin secretion in rat INS1 cells assessed as increase in AKT expression at 5 uM measured after 24 hrs by western blot assay; assay type: functional, cell-based
INS1 [17] = assay: Induction of insulin secretion in rat INS1 cells assessed as increase in PDX-1 expression at 5 uM measured after 24 hrs by western blot assay; assay type: functional, cell-based
INS1 [18] = assay: Cytotoxicity against rat INS1 cells assessed as cell viability at 10 uM measured after 24 hrs by MTT assay; assay type: cell-based; conditions: ins1, 24 h

C[C@@H](C(=O)O)[C@H]1CCO[C@]1(C)O
Activity (INS1 [1]): Non-Toxic

O=C1CC[C@@H](O)N1
Activity (INS1 [2]): Active
Activity (INS1 [3]): Active
Activity (INS1 [4]): Active
Activity_index (INS1 [5]): 6.57
Activity_index (INS1 [6]): 11.31
Activity (INS1 [7]): Active
Activity (INS1 [8]): Active
Activity (INS1 [1]): Non-Toxic
Activity (INS1 [9]): Active
Activity (INS1 [10]): Active

c1ccc2[nH]ccc2c1 [INDOLE]
Activity (INS1 [11]): Active
Activity (INS1 [12]): Active
Activity_index (INS1 [5]): 3.31
Activity (INS1 [13]): Active
Activity_index (INS1 [6]): 7.72
Activity (INS1 [14]): Active
Activity (INS1 [1]): Non-Toxic
Activity (INS1 [15]): Active
Activity (INS1 [16]): Active
Activity (INS1 [17]): Active

CC1(C)C[C@H](O)C[C@@]2(C)OC(=O)C=C12 [LOLIOLIDE]
Activity (INS1 [1]): Non-Toxic

O=Cc1coc2ccccc12
Activity (INS1 [1]): Non-Toxic

Cc1ccc(S(=O)(=O)NC(=O)NN2CC3CCCC3C2)cc1 (configuration not stated) [GLICLAZIDE]
Activity_index (INS1 [5]): 2.46
Activity_index (INS1 [6]): 3.47
Activity (INS1 [18]): Toxic

COC(=O)[C@@H]1CCC(=O)N1
Activity (INS1 [1]): Non-Toxic
